Results on nine molecules are retold here after publication PMC6471532, “Drug Transport across Porcine Intestine Using an Ussing Chamber System: Regional Differences and the Effect of P-Glycoprotein and CYP3A4 Activity on Drug Absorption” (Pharmaceutics, 2019).

For orientation: log P means a log measure of how a compound divides between an organic and an aqueous phase. Broadly, the Papp is a coefficient for how fast a substance crosses the barrier. By solubility is commonly meant how much of the substance goes into solution per volume. Low values mean little dissolved substance, high ones much dissolved substance.

Each structure is given as a SMILES string. ≈ marks a conversion by molar mass, not a printed value.

For data set [1], the system named is viable porcine intestine (jejunum). Briefly: Passive absorption across viable porcine intestine (jejunum) ex vivo, Ussing chamber, from KBR and biorelevant media. The settings on record: for QDEP FeSSIF V2 / QDEP FaSSIF V2 / QDEP KBR: amount deposited in intestine at 2 h as % of donor; for QPERM FaSSIF V2 / QPERM FeSSIF V2 / QPERM KBR: amount permeated at 2 h as % of donor.

Data set [2] has as its system human jejunum. The settings on record: cited from earlier work; for Peff,human^b In Vivo: Loc-I-Gut with physiological estimates of the surface area for absorption; for Peff,human^a In Vivo: Loc-I-Gut, jejunal segment, cylindrical surface area.
The conditions of data set [3]: source not given; cited from earlier work.
Data set [4] relates to CYP3A4. Briefly: in vitro. As to conditions: female, Swiss noble, pig, jejunum, 100 µM in KBR.
Data set [5] relates to CYP3A4. As to conditions: jejunum.
Data set [6] relates to human intestine. The settings on record: Ussing chamber; cited from earlier work.
The nature of data set [7]: Solubility in KBR, FaSSIF V2 and FeSSIF V2.
Data set [8] can be described thus: Segmental drug permeation across porcine duodenum, jejunum, ileum and colon, Ussing chamber. It is filed as in vitro ADME, pig. The settings on record: female, Swiss noble, pig, 100 µM in KBR.
Data set [9] deals with porcine duodenum, jejunum, ileum and colon. The description is as above. The settings on record: KBR, 2 h. It is filed as in vitro ADME, pig.
The nature of data set [10]: Passive absorption across viable porcine intestine (jejunum) ex vivo, Ussing chamber, from KBR and biorelevant media. As to conditions: female, Swiss noble, pig.
In data set [11] the target is T1, P-gp (Sus scrofa, UniProt K7GMM7). Briefly: in vitro. The settings on record: female, Swiss noble, pig, pH 7.4, with verapamil hydrochloride 100 µM in the donor compartment.
T1 sequence (K7GMM7 1-1248): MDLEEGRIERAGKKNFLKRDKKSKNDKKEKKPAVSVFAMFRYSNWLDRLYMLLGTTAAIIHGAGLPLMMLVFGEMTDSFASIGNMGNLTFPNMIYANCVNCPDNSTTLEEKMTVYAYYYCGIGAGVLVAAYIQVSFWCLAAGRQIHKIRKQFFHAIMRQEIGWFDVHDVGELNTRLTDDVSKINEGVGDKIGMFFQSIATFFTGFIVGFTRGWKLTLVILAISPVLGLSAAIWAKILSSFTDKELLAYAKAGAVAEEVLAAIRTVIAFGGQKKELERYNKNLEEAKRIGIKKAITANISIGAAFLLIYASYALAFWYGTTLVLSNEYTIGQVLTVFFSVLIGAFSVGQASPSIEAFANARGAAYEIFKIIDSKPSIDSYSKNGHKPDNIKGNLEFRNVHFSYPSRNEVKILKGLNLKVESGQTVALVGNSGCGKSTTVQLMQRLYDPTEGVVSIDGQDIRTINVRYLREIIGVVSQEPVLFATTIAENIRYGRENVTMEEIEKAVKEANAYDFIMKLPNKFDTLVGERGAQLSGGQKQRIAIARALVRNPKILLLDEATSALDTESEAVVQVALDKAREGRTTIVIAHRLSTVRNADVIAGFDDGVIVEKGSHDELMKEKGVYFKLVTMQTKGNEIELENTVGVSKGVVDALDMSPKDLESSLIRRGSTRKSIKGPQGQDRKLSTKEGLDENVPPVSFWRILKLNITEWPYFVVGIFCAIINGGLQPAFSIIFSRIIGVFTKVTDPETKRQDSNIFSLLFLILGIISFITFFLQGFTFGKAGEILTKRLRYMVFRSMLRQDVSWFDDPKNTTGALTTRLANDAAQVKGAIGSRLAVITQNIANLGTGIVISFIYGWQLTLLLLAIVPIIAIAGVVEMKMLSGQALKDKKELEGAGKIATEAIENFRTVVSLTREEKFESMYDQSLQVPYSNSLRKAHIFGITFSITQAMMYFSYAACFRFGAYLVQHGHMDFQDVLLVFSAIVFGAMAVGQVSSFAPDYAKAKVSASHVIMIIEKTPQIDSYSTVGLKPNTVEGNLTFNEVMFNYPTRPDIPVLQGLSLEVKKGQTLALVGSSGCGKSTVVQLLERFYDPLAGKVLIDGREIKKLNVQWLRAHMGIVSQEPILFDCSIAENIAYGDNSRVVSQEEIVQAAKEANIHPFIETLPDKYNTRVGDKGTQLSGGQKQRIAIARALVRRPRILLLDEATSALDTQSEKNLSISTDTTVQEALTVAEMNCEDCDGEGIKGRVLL
Data set [12] concerns the target T1, P-gp.
Where [13] appears, read: KBR buffer, pH 7.4, aqueous buffer.

Turning to `COc1ccc2cc([C@H](C)C(=O)O)ccc2c1` [Naproxen], the “QDEP FeSSIF V2” value in data set [1] was 4.74 ± 1.04%. Also, in [2], the “Peff,human^b In Vivo” value was 27–42 [77] 10^−6 cm/s and the “Peff,human^a In Vivo” value was 850 n.a. [31] 10^−6 cm/s.

As to `Cc1ncc2n1-c1ccc(Cl)cc1C(c1ccccc1F)=NC2` [Midazolam], the “log P” value in data set [3] is reported as 3.89. In data set [4] (pH 7.4, Papp,pig Ex Vivo (+CLOTR), with clotrimazole 100 µM), this molecule registered an apparent permeability (Papp) at 120 min, 100 µM of 0.46 ± 0.07 ×10⁻⁶ cm/s. In [4] (pH 7.4, Papp,pig Ex Vivo (−CLOTR), without clotrimazole), this molecule yielded a Papp at 120 min, 100 µM of 0.183 ± 0.138 ×10⁻⁶ cm/s. In addition, in data set [5] (clotrimazole 100 µM), the “Effect of the presence of clotrimazole on Papp,pig” value is given as “significantly increased”. Also, in data set [5] (with clotrimazole 100 µM), the “QDEP (+CLOTR)” value is recorded as 7.49 ± 2.50% and the “QPERM (+CLOTR)” value was found to be 0.18 ± 0.08%. For the same molecule, in [5] (without clotrimazole), the “QDEP (−CLOTR)” value is reported as 8.06 ± 1.33% and the “QPERM (−CLOTR)” value was determined as 0.13 ± 0.09%.

As for `COCCc1ccc(OCC(O)CNC(C)C)cc1` (racemic) [Metoprolol, (+/−)-Metoprolol], in data set [6], the “Papp,human jejunum” value is 15.9 ± 3.69 10^−6 cm/s. Further, in data set [7] (FaSSIF V2, pH 6.5, fassif), the solubility is 43800 ± 15800 µg/mL (≈ 164 mM). For the same molecule, in data set [7] (FeSSIF V2, pH 5.8, fessif), the solubility was 381000 ± 33800 µg/mL (≈ 1420 mM). Moreover, the concentration in solution in data set [7] (setting [13]) (solubility) was 298000 ± 13900 µg/mL (≈ 1110 mM). In data set [8] (pH 7.4, colon, read-out: Papp,pig Ex Vivo Colon), the apparent permeability coefficient (Papp) at 120 min, 100 µM is 17.6 ± 5.41 ×10⁻⁶ cm/s. Moreover, the apparent permeability coefficient (Papp) at 120 min, 100 µM in [8] (pH 7.4, duodenum, read-out: Papp,pig Ex Vivo Duodenum) worked out at 0.39 ± 0.16 ×10⁻⁶ cm/s. In data set [8] (pH 7.4, ileum, read-out: Papp,pig Ex Vivo Ileum), the Papp at 120 min, 100 µM turned out to be 6.87 ± 1.23 ×10⁻⁶ cm/s. Besides, in [8] (pH 7.4, jejunum, read-out: Papp,pig Ex Vivo Jejunum), the apparent permeability coefficient (Papp) at 120 min, 100 µM amounted to 10.6 ± 2.92 ×10⁻⁶ cm/s. In addition, in data set [9] (colon), the “QDEP Colon” value came to 0.02 ± 0.00% and the “QPERM Colon” value is on record as 1.65 ± 0.87 (6) %. Besides, in data set [9] (duodenum), the “QDEP Duodenum” value is on record as 2.35 ± 0.25% and the “QPERM Duodenum” value is on record as 0.14 ± 0.08 (5) %. Moreover, in data set [9] (ileum), the “QDEP Ileum” value came out at 1.89 ± 0.67% and the “QPERM Ileum” value is given as 0.83 ± 0.09 (5) %. The “QPERM Jejunum” value in data set [9] (jejunum) is 0.18 ± 0.05 (4) %. Besides, in [1], the “QDEP FaSSIF V2” value was 0.12 ± 0.03%, the “QDEP FeSSIF V2” value worked out at 0.22 ± 0.01%, the “QDEP KBR” value worked out at 0.28 ± 0.04% and the “QPERM FaSSIF V2” value is 0.89 ± 0.19%. For the same molecule, in data set [1], the “QPERM FeSSIF V2” value was 0.74 ± 0.08% and the “QPERM KBR” value is recorded as 0.18 ± 0.05%. This molecule registered a Papp at 120 min, 100 µM in data set [10] (pH 5.8) of 5.79 ± 1.38 ×10⁻⁶ cm/s. The same molecule had a Papp at 120 min, 100 µM in data set [10] (pH 6.5) of 7.62 ± 1.41 ×10⁻⁶ cm/s. The same molecule showed an apparent permeability coefficient (Papp) at 120 min, 100 µM in [10] (pH 7.4) of 10.6 ± 2.92 ×10⁻⁶ cm/s.

Regarding `NS(=O)(=O)c1cc(C(=O)O)c(NCc2ccco2)cc1Cl` [Furosemide], in data set [1], the “QDEP FaSSIF V2” value was determined as 2.22 ± 0.17% and the “QDEP FeSSIF V2” value was 1.52 ± 0.24%. Also, in data set [2], the “Peff,human^b In Vivo” value was 1–1.6 [77] 10^−6 cm/s and the “Peff,human^a In Vivo” value is 5 n.a. [31] 10^−6 cm/s.

As for `NC(=O)N1c2ccccc2C=Cc2ccccc21` [Carbamazepine], the solubility in [7] (FaSSIF V2, pH 6.5, fassif) came out at 320 ± 10 µg/mL (≈ 1.35 mM); in data set [7] (FeSSIF V2, pH 5.8, fessif), 730 ± 10 µg/mL (≈ 3.09 mM); in data set [7] (setting [13]), 200 ± 20 µg/mL (≈ 0.846 mM). Also, the “QDEP FeSSIF V2” value in data set [1] was 3.45 ± 0.52%. For the same molecule, in data set [1], the “QDEP KBR” value is reported as 1.44 ± 0.16%. In data set [1], the “QPERM FeSSIF V2” value amounted to 0.58 ± 0.22%. The “QPERM KBR” value in data set [1] is on record as 2.39 ± 0.42%. Further, the figures for the apparent permeability coefficient (Papp) at 120 min, 100 µM in data set [10] (pH 5.8), in data set [10] (pH 6.5) and in [10] (pH 7.4) were 4.26 ± 0.96 ×10⁻⁶ cm/s, 5.97 ± 0.52 ×10⁻⁶ cm/s and 7.81 ± 5.69 ×10⁻⁶ cm/s, respectively. The “Peff,human^a In Vivo” value in data set [2] was 430 n.a. [31] 10^−6 cm/s.

As for `NS(=O)(=O)c1cc2c(cc1Cl)NCNS2(=O)=O` [Hydrochlorothiazide], in [1], the “QDEP FaSSIF V2” value is given as 0.22 ± 0.11%, the “QDEP FeSSIF V2” value is reported as 0.74 ± 0.09%, the “QPERM FaSSIF V2” value came out at 0.11 ± 0.05% and the “QPERM FeSSIF V2” value stood at 0.23 ± 0.08%. Besides, in [10] (pH 5.8), the apparent permeability coefficient (Papp) at 120 min, 100 µM is 1.37 ± 0.53 ×10⁻⁶ cm/s. Further, the Papp at 120 min, 100 µM in [10] (pH 6.5) was found to be 0.2 ± 0.25 ×10⁻⁶ cm/s. Moreover, the apparent permeability (Papp) at 120 min, 100 µM in data set [10] (pH 7.4) is 2.88 ± 2.84 ×10⁻⁶ cm/s. Besides, the “Peff,human^a In Vivo” value in [2] is 4 n.a. [31] 10^−6 cm/s.

Molecule `CNC(=C[N+](=O)[O-])NCCSCc1ccc(CN(C)C)o1` [Ranitidine] returned a solubility in [7] (FaSSIF V2, pH 6.5, fassif) of 15900 ± 1470 µg/mL (≈ 50.5 mM). In addition, the solubility in data set [7] (FeSSIF V2, pH 5.8, fessif) is 808000 ± 70500 µg/mL (≈ 2570 mM). The molecule also displayed a solubility in data set [7] (setting [13]) of 19600 ± 2780 µg/mL (≈ 62.5 mM). Also, the apparent permeability (Papp) at 120 min, 100 µM in [11] was 4.92 ×10⁻⁶ cm/s. Moreover, the “Effect of the presence of verapamil on Papp,pig in the ileum” value in [12] (ileum, verapamil 100 µM, Student's t-test) is “significantly increased”. In data set [12] (ileum, with verapamil 100 µM), the “QDEP Ileum (+VER)” value is on record as 7.91 ± 0.74% and the “QPERM Ileum (+VER)” value is reported as 0.25 ± 0.03 (6) %. Besides, in [12] (ileum, without verapamil), the “QDEP Ileum (−VER)” value turned out to be 1.10 ± 0.59% and the “QPERM Ileum (−VER)” value is reported as 0.55 ± 0.35 (4) %. For the same molecule, the “Difference in Papp,pig across the jejunum in the presence or absence of verapamil” value in [12] (jejunum, verapamil 100 µM) is “No statistically significant difference”. For the same molecule, in [12] (jejunum, with verapamil 100 µM), the “QDEP Jejunum (+VER)” value is reported as 5.47 ± 0.75% and the “QPERM Jejunum (+VER)” value is listed as 0.23 ± 0.15 (5) %. Besides, in data set [12] (jejunum, without verapamil), the “QDEP Jejunum (−VER)” value worked out at 1.32 ± 0.31% and the “QPERM Jejunum (−VER)” value was 0.67 ± 0.12 (6) %.

Turning to `CN1C(C(=O)Nc2ccccn2)=C(O)c2ccccc2S1(=O)=O` [Piroxicam], in [3], the “log P” value was 3.06. Moreover, the concentration in solution in data set [7] (FaSSIF V2, pH 6.5, fassif) (solubility) was 290 ± 20 µg/mL (≈ 0.875 mM). In [7] (FeSSIF V2, pH 5.8, fessif), this molecule displayed a solubility of 60 µg/mL (≈ 0.181 mM). The molecule further had a solubility in data set [7] (setting [13]) of 430 ± 20 µg/mL (≈ 1.3 mM). Besides, in data set [1], the “QDEP FaSSIF V2” value came out at 5.63 ± 0.26%, the “QDEP FeSSIF V2” value was determined as 0.21 ± 0.04%, the “QDEP KBR” value turned out to be 4.12 ± 0.15% and the “QPERM FaSSIF V2” value came out at 2.32 ± 0.79%. In data set [1], the “QPERM FeSSIF V2” value is recorded as 1.13 ± 0.46% and the “QPERM KBR” value was found to be 2.52 ± 0.70%. In data set [10] (pH 5.8), the apparent permeability (Papp) at 120 min, 100 µM worked out at 5.14 ± 0.78 ×10⁻⁶ cm/s. The same molecule yielded a Papp at 120 min, 100 µM in data set [10] (pH 6.5) of 10.8 ± 3.7 ×10⁻⁶ cm/s. For the same molecule, the apparent permeability coefficient (Papp) at 120 min, 100 µM in data set [10] (pH 7.4) amounted to 8.93 ± 2.03 ×10⁻⁶ cm/s. Further, the “Peff,human^a In Vivo” value in [2] was 665 n.a. [31] 10^−6 cm/s.

For `OCc1ncc2n1-c1ccc(Cl)cc1C(c1ccccc1F)=NC2` [α-hydroxymidazolam], the “Amount of principal metabolite in the intestinal tissue in the presence of clotrimazole” value in [5] (parent drug 100 µM, clotrimazole 100 µM) is “significantly decreased”.
